From patent US20250179103A1, “6-OXODECAHYDROPYRROLO[1,2-A][1,5]DIAZOCINE AND 6-OXODECAHYDRO-4H-PYRROLO[2,1-D][1,5]THIAZOCINE DERIVATIVES AS STAT3 AND STAT6 MODULATORS FOR THE TREATMENT OF CANCER AND INFLAMMATORY CONDITIONS” (Recludix Pharma, Inc., priority 2022, published 2025)

Legend:
[1] = target: T1, Recombinant STAT3 protein (STAT3(G127-I722)) (Homo sapiens, UniProt P40763); test: STAT3 Fluorescence Polarization (FP) Assay; assay type: binding; details: STAT3(G127-I722) 25 nM, probe 5-FAM-GpYLPQTV-NH2 2 nM, 45-minute incubation
T1 construct: Recombinant STAT3 protein (STAT3(G127-I722))
Outline: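 STAT3(G127-I722), 25 nM, was mixed with 2 nM 5-FAM-GpYLPQTV-NH2 probe in HEPES pH 7.4 buffer with 1% DMSO and serially diluted compound. FP (mP) was read after 45 min at room temperature. IC50 came from nonlinear regression.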

[2] = target: T2, Recombinant STAT6 protein (STAT6(W123-T658)) (Homo sapiens, UniProt P42226); test: STAT6 Fluorescence Polarization (FP) Assay; assay type: binding; details: STAT6(W123-T658) 250 nM, probe 5-FAM-ApYKPFQDLI-NH2 2 nM, 45-minute incubation
T2 construct: Recombinant STAT6 protein (STAT6(W123-T658))
T2 sequence (P42226 123-658): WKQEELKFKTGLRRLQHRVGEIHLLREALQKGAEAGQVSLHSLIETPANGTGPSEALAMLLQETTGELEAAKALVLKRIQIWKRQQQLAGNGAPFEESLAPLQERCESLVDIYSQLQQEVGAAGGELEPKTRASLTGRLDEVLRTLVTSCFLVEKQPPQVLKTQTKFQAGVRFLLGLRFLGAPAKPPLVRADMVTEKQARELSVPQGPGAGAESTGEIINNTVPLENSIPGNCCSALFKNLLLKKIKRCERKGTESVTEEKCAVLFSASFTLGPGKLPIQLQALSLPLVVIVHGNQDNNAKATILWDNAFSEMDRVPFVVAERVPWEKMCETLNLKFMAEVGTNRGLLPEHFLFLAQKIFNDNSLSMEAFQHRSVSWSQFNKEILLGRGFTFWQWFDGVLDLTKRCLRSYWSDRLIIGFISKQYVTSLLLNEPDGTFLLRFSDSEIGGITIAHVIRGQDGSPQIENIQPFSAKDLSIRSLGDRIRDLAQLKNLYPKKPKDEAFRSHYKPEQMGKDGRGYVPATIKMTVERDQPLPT
Outline: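 Displacement of a fluorescent phosphotyrosine peptide (5-FAM-ApYKPFQDLI-NH2, 2 nM) from STAT6(W123-T658) (250 nM), 1% DMSO, pH 7.4 HEPES buffer. After 45 min at room temperature, polarization (mP) was plotted versus log compound concentration and fitted by nonlinear regression to give IC50.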

T1 sequence (P40763 127-722): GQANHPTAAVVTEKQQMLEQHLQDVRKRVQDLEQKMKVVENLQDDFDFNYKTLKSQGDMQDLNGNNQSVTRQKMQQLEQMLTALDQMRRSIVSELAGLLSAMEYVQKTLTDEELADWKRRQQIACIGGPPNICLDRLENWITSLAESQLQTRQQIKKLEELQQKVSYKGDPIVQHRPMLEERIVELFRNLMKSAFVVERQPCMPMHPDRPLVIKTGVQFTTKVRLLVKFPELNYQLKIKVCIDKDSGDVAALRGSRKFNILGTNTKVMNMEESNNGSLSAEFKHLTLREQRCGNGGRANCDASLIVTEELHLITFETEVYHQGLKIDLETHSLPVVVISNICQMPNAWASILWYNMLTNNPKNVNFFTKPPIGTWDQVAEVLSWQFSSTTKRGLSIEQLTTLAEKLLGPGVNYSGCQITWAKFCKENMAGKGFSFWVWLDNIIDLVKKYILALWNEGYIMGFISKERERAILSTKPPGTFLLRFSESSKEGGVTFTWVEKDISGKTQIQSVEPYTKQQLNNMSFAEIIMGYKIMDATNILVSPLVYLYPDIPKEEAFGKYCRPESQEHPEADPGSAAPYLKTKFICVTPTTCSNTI

| SMILES | IC50 [1] | IC50 [2] |
| --- | --- | --- |
| CC(=O)N1CC[C@H]2CC[C@@H](C(=O)N(C)C3CCN(S(C)(=O)=O)CC3)N2C(=O)[C@@H](NC(=O)c2cc3cc(C(F)(F)P(=O)(O)O)ccc3s2)C1 [Compound 93, ((2-(((5S,8S,10aR)-3-acetyl-8-(methyl(1-(methylsulfonyl)piperidin-4-yl)carbamoyl)-6-oxodecahydropyrrolo[1,2-a][1,5]diazocin-5-yl)carbamoyl)benzo[b]thiophen-5-yl)difluoromethyl)phosphonic acid] | 1 to 10 µM | 0.3 to 3 µM |
| CC(=O)N1CC[C@H]2CC[C@@H](C(=O)Nc3ccn(-c4ccccc4)c(=O)c3C#N)N2C(=O)[C@@H](NC(=O)c2cc3cc(C(F)(F)P(=O)(O)O)ccc3[nH]2)C1 [Compound 105, ((2-(((5S,8S,10aR)-3-acetyl-8-((3-cyano-2-oxo-1-phenyl-1,2-dihydropyridin-4-yl)carbamoyl)-6-oxodecahydropyrrolo[1,2-a][1,5]diazocin-5-yl)carbamoyl)-1H-indol-5-yl)difluoromethyl)phosphonic acid] | 0.1 to 1 µM | 0.3 to 3 µM |
| CC(=O)N1CC[C@H]2CC[C@@H](C(=O)N3CC(C#N)C4(CCC4)C3)N2C(=O)[C@@H](NC(=O)c2cc3cc(C(F)(F)P(=O)(O)O)ccc3s2)C1 (stereo partly drawn) [Compound 64, ((2-(((5S,8S,10aR)-3-acetyl-8-(8-cyano-6-azaspiro[3.4]octane-6-carbonyl)-6-oxodecahydropyrrolo[1,2-a][1,5]diazocin-5-yl)carbamoyl)benzo[b]thiophen-5-yl)difluoromethyl)phosphonic acid] | 1 to 10 µM | 0.3 to 3 µM |
| COc1ccc2c(C(=O)N3CC[C@H]4CC[C@@H](C(=O)N5CCOCC5)N4C(=O)[C@@H](NC(=O)c4ccc5ccc(C(F)P(=O)(O)O)cc5c4)C3)noc2c1 (stereo partly drawn) [Compound 363, (fluoro(7-(((5S,8S,10aR)-3-(6-methoxybenzoyl[d]isoxazole-3-carbonyl)-8-(morpholine-4-carbonyl)-6-oxodecahydropyrrolo [1,2-a][1,5]diazocin-5-yl)carbamoyl)naphthalen-2-yl)methyl)phosphonic acid] | > 10 µM | ≤ 0.3 µM |
| Cc1cc(Cl)cc(C(=O)N2CC[C@H](NC(=O)c3ccc4ccc(C(F)P(=O)(O)O)cc4c3)C(=O)N3[C@H](CC[C@H]3C(=O)N3CCOCC3)C2)c1 (stereo partly drawn) [Compound 389, ((7-(((5S,8S,10aR)-2-(3-chloro-5-methyl-benzoyl)-8-(morpholine-4-carbonyl)-6-oxodecahydropyrrolo [1,2-a][1,4]diazocin-5-yl)carbamoyl)naphthalen-2-yl)fluoromethyl) phosphonic acid] | > 10 µM | 0.3 to 3 µM |
| O=C(N[C@H]1CN(CC(F)F)CC[C@H]2CC[C@@H](C(=O)N3C[C@H](c4ccccc4)[C@@H](C(F)F)C3)N2C1=O)c1cc2cc(C(F)(F)P(=O)(O)O)ccc2s1 (relative stereo) [Compound 242, ((2-(((5S,8S,10aR)-3-(2,2-difluoroethyl)-8-((rel-trans)-3-(difluoromethyl)-4-phenylpyrrolidine-1-carbonyl)-6-oxodecahydropyrrolo[1,2-a][1,5]diazocin-5-yl)carbamoyl)benzo[b]thiophen-5-yl)difluoromethyl)phosphonic acid] | 0.1 to 1 µM | ≤ 0.3 µM |
| CC(=O)N1CC[C@H]2CC[C@@H](C(=O)N(C)c3ccccc3)N2C(=O)[C@@H](NC(=O)/C(C)=C/c2cccc(C(F)(F)P(=O)(O)O)c2)C1 [Compound 45, ((3-((E)-3-(((5S,8S,10aR)-3-acetyl-8-(methyl(phenyl)carbamoyl)-6-oxodecahydropyrrolo[1,2-a][1,5]diazocin-5-yl)amino)-2-methyl-3-oxoprop-1-en-1-yl)phenyl)difluoromethyl)phosphonic acid] | > 10 µM | > 30 µM |
